Several values for one entry are separate records, joined by “and”; a condition that tells them apart may be missing. Equal entries are not always repeated. Where two headings read alike, the source gives them in different places. Bounds are passed on as bounds.

Series [1] concerns cluster headache patients. Conditions: nasal spray at doses of 5 and 10 mg; cited from earlier work.
For series [2], the system named is cerebral blood flow. Conditions: 5% carbon dioxide; young men; cited from earlier work.
Series [3] deals with pulmonary ventilation rate. Conditions: increase of about 0.25% alveolar carbon dioxide; cited from earlier work.
Series [4] relates to patients with episodic and chronic cluster headache. Conditions: episodic and chronic disease; cited from earlier work.
For series [5], the system named is cluster headache sufferers.
Source text: It is critical that the cluster headache sufferer fully inhale and exhale as completely as possible during the first three phases of the method of the present invention, in order to insure more complete ventilation of the lungs during hyperventilation and the expelling of carbon dioxide, a vasodilative agent, as rapidly as possible. The four phases of the invented demand valve method are herein described in more detail.
Taking three to four very deep breaths of oxygen from the demand valve, exhaling and inhaling as completely as possible with each breath, starts the process of clearing the residual Nitrogen from the lungs and also starts the shift into hyperoxia, which can be defined as having more oxygen in the blood than normal.
In Phase 3, slow hyperventilation, which has a recommended respiration rate of 30 breaths per minute, the purpose is to maintain the benefits of hyperventilation, respiratory alkalosis, hypocapnia, and hyperoxia, but at a more comfortable respiration rate. […] The cluster headache sufferer should maintain this respiration rate until the cluster headache pain has clearly subsided.
In series [6] the test system is cluster headache patients. Conditions: cited from earlier work; for headache response: Rozen 2004; for subjects in whom oxygen is effective: standard of care continuous flow.
Series [7] relates to cluster headache patients. Conditions: cited from earlier work.
Series [8] has as its system cerebral blood flow. Conditions: cited from earlier work.
Another series relates to Extracerebral Flow Index. Conditions: cluster headache patients during headache interval, during 100% oxygen inhalation; cited from earlier work.
In a further series the test system is normal human subjects. Conditions: cited from earlier work.
Series [9] relates to cluster headache patients. Conditions: cited from earlier work. The source holds these as a separate data set.
Setting [10] is: after 10 minutes of oxygen inhalation.

As for `CN(C)CCc1c[nH]c2ccc(C[C@H]3COC(=O)N3)cc12` [Zolmitriptan], in series [1], the “acute treatment of cluster headache” value is “effective and tolerable”.
`O=C=O` [carbon dioxide]: the “increase in CBF” value with cerebral blood flow [2] is 59%. The “increase in pulmonary ventilation rate” value in series [3] is 100%.
For the compound `O=O` [hyperbaric oxygen], in series [4], the prophylactic effect entry is recorded as “no significant prophylactic effect”.
For the compound `O=O` [oxygen], the “re-attacks (attack 15 to 45 minutes after successful abort), incidence per aborts” value in series [5] (Kip pain level high (7-8) and abort times less than 15 min) is 1 out of 4. Besides, in series [5] (demand valve method, chronic sufferers over 50, attacks of Kip 8 pain level or below), the “success rate of aborting cluster headache” value was 95% and > 95%. Further, the “reduction of time for complete abort vs non-rebreathing mask with 15 l/min continuous flow oxygen” value in series [5] (demand valve method, same pain level) was roughly 50%. In addition, the time to abort in series [5] (demand valve method, the one Kip 9 cluster headache recorded) came to 25 min. Also, the “adverse effects or symptoms” value in [5] (many months of continuous use, other than dry mouth) is “no adverse effects or symptoms encountered”. The “re-attacks after extending oxygen use after abort” value in series [5] (total of 20 minutes of continuous oxygen inhalation) is “largely or totally eliminated”. Besides, the “time to being effective” value in [6] (7 to 12 l/min continuous flow, non-rebreathing mask) is no more than 5 min. Also, in [6] (Ekbom 2002, Matharu 2003), the “adverse effects of oxygen for cluster headache” value is reported as “no established adverse effects”. The “patients obtaining significant relief from cluster pain” value in series [6] (Kudrow 1981, cessation of pain within 15 minutes for at least 7 of 10 attacks) is given as 75%. In [6] (Kudrow 1981, chronic patients over 49 years of age), the least benefit is listed as 57%. Also, in [6] (Kudrow 1981, episodic patients under 50 years of age), the greatest benefit was 92.9%. Besides, the headache response entry in series [6] (7-10 l/min flow rate) is reported as “no change in headache intensity”; in [6] (higher flow rate (15 l/min)) it was “complete or near-complete headache alleviation”. Besides, in series [6] (chronic patients, standard of care oxygen therapy), the patients having success is 68.4%. Besides, the patients responding favorably in [6] (episodic patients, standard of care oxygen therapy) is 78%. Besides, the “subjects in whom oxygen is effective” value in [6] (non-rebreathing mask) is on record as roughly 70%; in series [6] (non-rebreathing mask, listed as 100% oxygen), 70%. Moreover, in series [6] (standard of care method (Matharu 2003)), the “patients noting oxygen simply delays the attack rather than aborting it” value is “up to 25%”. Besides, the “average decrease of superficial temporal artery pulse amplitude” value in [7] (setting [10]) is listed as 30%. Also, the “patients with decreased pulse amplitude of superficial temporal artery, symptomatic side” value in [7] (setting [10]) was 15 of the 16. The “headache subsiding almost completely” value in series [7] (after 15 minutes, 16 patients studied) is 12 patients. The “patients reporting at least some relief” value in series [7] (after breathing 100% oxygen for 10 minutes) is 15 of 16. In addition, in the series with cerebral blood flow [8] (Floyd 2003, transition from air to 100% O2 at 1.0 ATA, MRI), the “decrease in CBF” value is 33%. In addition, the “CBF values for temporal cortex and basal ganglia” value with cerebral blood flow [8] (Kawamura 1991, after 100% oxygen for five minutes, five cluster headache patients) is on record as “significantly decreased below normal values”. The “decrease of cerebral blood flow” value in the series with cerebral blood flow [8] (Kety, healthy young male volunteers) is “approximately 13%”. The “reduction of Fg (CBF in gray brain matter)” value in the series on cerebral blood flow [8] (Sakai 1979, normal volunteers of both sexes) is given as 9.4+/−5.4%. Besides, the EFI values with Extracerebral Flow Index is reported as 7+/−2%. In the series on normal human subjects (Kafer 1971, within 3 hours of exposure), the toxic effects entry is on record as “no toxic effects”. In addition, in the series on normal human subjects (Sackner 1975, atmospheric pressure), the “duration for which exposure is safe” value is reported as “less than 6 hours”. Further, the “earliest occurrence of substernal stress after start of oxygen breathing” value with normal human subjects (Sackner 1975) is 4 h.
`CNS(=O)(=O)Cc1ccc2[nH]cc(CCN(C)C)c2c1` [sumatriptan]: in series [9] (6 mg injected subcutaneously, double blind placebo controlled trials), the “patients in whom effective (pain free in 20 minutes)” value is given as “about 75%”. The “lower effectiveness in chronic than in episodic cluster” value in [9] (sumatriptan injection (Rozen 2002)) is reported as 8%.
